Data published in publication PMC6143625, “A high throughput screen for next-generation leads targeting malaria parasite transmission” (Nature Communications, 2018).
Read-outs that look alike come from different tables or passages of the source.

Columns and labels:
[1] = test system: P. falciparum stage V male gametocytes (male gamete formation); experiment: P. falciparum dual gamete formation assay (Pf DGFA), male readout (exflagellation), 48 h carry-over format; assay type: cell-based, Plasmodium falciparum NF54; details: for IC50 / inhibition at 2 µM: Plasmodium falciparum; for IC50: read-out: Male IC50; for inhibition at 2 µM / %Inhibition Male @2uM: primary screen, single replicate
[2] = test system: HepG2 human cells; parameters: method as in http://dx.doi.org/10.6019/CHEMBL3507680; details: ref http://dx.doi.org/10.6019/CHEMBL3507680; cited from earlier work
[3] = test system: P. falciparum stage V female gametocytes (female gamete formation); experiment: P. falciparum dual gamete formation assay (Pf DGFA), female readout (Pfs25 expression), 48 h carry-over format; assay type: cell-based, Plasmodium falciparum NF54; details: for IC50 / inhibition at 2 µM: Plasmodium falciparum; for IC50: read-out: Female IC50; for inhibition at 2 µM / %Inhibition Female @2uM: primary screen, single replicate
[4] = 48 h, dose response retest of primary hits, 48 h incubation

| SMILES | %Inhibition Male @2uM ([1]; 48 h incubation) [%] | %Inhibition Female @2uM ([3]; 48 h incubation) [%] | also measured |
| --- | --- | --- | --- |
| O=C(CN1CC(c2nc(C3CC3)no2)C1)N1CCOCC1.O=C(O)C(=O)O [DDD01027902] | – | – | IC50 [1, 4]: 1.18 µM; inhibition at 2 µM ([1]; 48 h incubation): 52.5%; %Inh HepG2 @10uM [2]: -17.5%; IC50 [3, 4]: 5.81 µM; inhibition at 2 µM ([3]; 48 h incubation): < 30% |
| COc1ccc(CN2CCc3c(CNC(=O)CC#N)nn(C)c3C2)cc1.O=C(O)C(F)(F)F.O=C(O)C(F)(F)F [DDD01030619] | – | – | IC50 [1, 4]: 1.34 µM; inhibition at 2 µM ([1]; 48 h incubation): 59.5%; %Inh HepG2 @10uM [2]: -1.4%; IC50 [3, 4]: > 10 µM; inhibition at 2 µM ([3]; 48 h incubation): < 30% |
| COc1ccc(CNC(Cc2ccsc2)c2ccc(C)cn2)c(OC)c1 (stereo not drawn) [DDD01058868] | – | – | IC50 [1, 4]: > 10 µM; inhibition at 2 µM ([1]; 48 h incubation): < 30%; %Inh HepG2 @10uM [2]: 85.33%; IC50 [3, 4]: 5.3 µM; inhibition at 2 µM ([3]; 48 h incubation): 30.8% |
| Cc1cccnc1CN1CC[C@H](Oc2cccc(F)c2)[C@@](C)(O)C1 [DDD01060871] | – | – | IC50 [1, 4]: > 10 µM; inhibition at 2 µM ([1]; 48 h incubation): < 30%; %Inh HepG2 @10uM [2]: -0.828%; IC50 [3, 4]: 6.07 µM; inhibition at 2 µM ([3]; 48 h incubation): 32.8% |
| CC(NCC1CCN(CCO)CC1)c1ccc(C(F)(F)F)cc1 (stereo not drawn) [DDD01073719] | – | – | IC50 [1, 4]: 7.83 µM; inhibition at 2 µM ([1]; 48 h incubation): 34.8%; %Inh HepG2 @10uM [2]: 14.02%; IC50 [3, 4]: > 10 µM; inhibition at 2 µM ([3]; 48 h incubation): < 30% |
| O=C(C1CC2(CCNCC2)CN1)N1CCN(c2cccc(Cl)c2Cl)CC1 (stereo not drawn) [DDD01243908] | – | – | IC50 [1, 4]: 4.28 µM; inhibition at 2 µM ([1]; 48 h incubation): 65.7%; %Inh HepG2 @10uM [2]: -1.58%; IC50 [3, 4]: 4.79 µM; inhibition at 2 µM ([3]; 48 h incubation): < 30% |
| Cc1cc(NCc2ccc(O)cc2)n2nc(C)cc2n1 [DDD01253811] | <30 | 99.46 | – |
| CC(C)OC(=O)N1CCC(Cc2cccc(C(N)=O)c2)C1 (stereo not drawn) [DDD01254183] | 132.02 | <30 | – |
| CSc1ccc(C(=O)N2CCCC(Nc3ccc(F)cc3)C2)cc1 (stereo not drawn) [DDD01254674] | 162.04 | <30 | – |
| Cc1oc(-c2ccoc2)nc1CN1CCCCC1CCc1ccccc1 (stereo not drawn) [DDD01254868] | 143.16 | <30 | – |
| O=C(CSc1ccncc1)N1CCC2(CC1)c1ccccc1CC2O (stereo not drawn) [DDD01255239] | 143.16 | <30 | – |
| CN(Cc1nccn1C)C1CCCN(CCCc2ccccc2)C1 (stereo not drawn) [DDD01255359] | 61.22 | <30 | – |
| CCc1nnc(CNC(=O)CCN2CCN(c3cccc(C)c3)CC2)s1 [DDD01255634] | 133.78 | <30 | – |
| Cc1ccc(CN2CCN(C(=O)c3ccc(CO)cc3)C(C)C2=O)cc1 (stereo not drawn) [DDD01255654] | <30 | 38.25 | – |
| COC(=O)C1CCN(C(=O)c2cccc(NS(C)(=O)=O)c2C)CC1 [DDD01255952] | 126.32 | <30 | – |
| COc1cccc2c1OCC(C(=O)N1CCC(NS(C)(=O)=O)CC1)C2 (stereo not drawn) [DDD01255971] | 160.00 | <30 | – |
| Cc1ccccc1C(=O)Nc1ccc(OC2CCN(C)CC2)cc1 [DDD01256105] | 177.06 | <30 | – |
| Cc1cnn(CCCN2C(=O)CCc3ccccc32)c1 [DDD01256166] | 31.82 | <30 | – |
| Cc1ccc(CN2CCCC(c3nnc(CN4CCCC4)n3C)C2)s1 (stereo not drawn) [DDD01256510] | 109.47 | <30 | – |
| COCCN(C)CCN1CC2(CCN(C3CCOCC3)CC2)OC1=O [DDD01256592] | 44.84 | <30 | – |

| SMILES | %Inhibition Male @2uM ([1]; 48 h incubation) [%] | %Inhibition Female @2uM ([3]; 48 h incubation) [%] | also measured |
| --- | --- | --- | --- |
| O=C(O)CCc1cc2n(n1)CCCN(C(=O)c1cc3ccccc3s1)C2 [DDD01256606] | <30 | 30.77 | – |
| CC(C)(CNC1CCCN(Cc2ccccn2)C1)CN1CCOCC1 (stereo not drawn) [DDD01256674] | <30 | 31.10 | – |
| Cc1cc(C(=O)N2CCC(c3nccn3Cc3ccccn3)CC2)no1 [DDD01256728] | 88.77 | <30 | – |
| CCOCC(=O)N1CCC(c2nccn2CC2CC2)CC1 [DDD01256942] | 104.28 | <30 | – |
| CN(C)C(=O)N1C[C@H]2CC[C@@H](C1)N(C/C=C/c1ccc(F)cc1)C2 [DDD01256992] | <30 | 32.94 | – |
| COc1ccc(C(=O)N2CCOC3(CNCCOC3)C2)c(OC)n1 (stereo not drawn) [DDD01257050] | 126.32 | <30 | – |
| CN(Cc1ccccc1CN1CCCC1)C(=O)c1c[nH]c(=O)[nH]1 [DDD01257093] | <30 | 34.04 | – |
| Cc1ccc(F)cc1CC(=O)N(CCN1CCOCC1)Cc1ccco1 [DDD01257151] | <30 | 36.90 | – |
| O=C1N(CCC2CCCCC2)CCCC1(O)CNCCc1ccccc1 (stereo not drawn) [DDD01257222] | 147.75 | <30 | – |
| CCn1cc(CN(C)C(=O)c2cccc(CCC(C)(C)O)c2)cn1 [DDD01257573] | <30 | 32.19 | – |
| CN(CCO)Cc1nnc(C2CCN(C3CCCCC3)CC2)n1C [DDD01257771] | <30 | 30.00 | – |
| COc1ccc(C(=O)C2CCCN(Cc3ccncc3)C2)c(OC)c1 (stereo not drawn) [DDD01257881] | <30 | 31.13 | – |
| c1cn(Cc2nnc(C3CCN(c4nccs4)CC3)n2C2CC2)cn1 [DDD01257895] | <30 | 34.43 | – |
| Cc1nn(C)cc1C(=O)N1C[C@@H]2CC[C@H]1CN(S(=O)(=O)N(C)C)C2 [DDD01257957] | <30 | 39.59 | – |
| Cc1cc(C)nc(N2Cc3cnn(Cc4ccc(F)cc4)c3C2)n1 [DDD01258067] | <30 | 46.44 | – |
| COc1cc(C)c(CN2CCC3(CC2)C(C(=O)O)CC(=O)N3C)cc1C (stereo not drawn) [DDD01258170] | <30 | 46.51 | – |
| COc1cccc(S(=O)(=O)NC(=O)CC2CCCO2)c1 (stereo not drawn) [DDD01295262] | <30 | 46.83 | – |
| Cc1nn(C)c(C)c1CCC(=O)N1CCCC(n2cccn2)C1 (stereo not drawn) [DDD01296064] | 47.51 | <30 | – |
| Cc1cn2c(n1)CCC(NC(=O)Cn1cncn1)C2 (stereo not drawn) [DDD01296301] | <30 | 57.78 | – |
| NC(=O)COc1ccc(C(=O)N2CCCC(n3ccnc3)C2)cc1 (stereo not drawn) [DDD01296946] | <30 | 40.74 | – |

| SMILES | %Inhibition Male @2uM ([1]; 48 h incubation) [%] | %Inhibition Female @2uM ([3]; 48 h incubation) [%] | also measured |
| --- | --- | --- | --- |
| Cc1cnn(CC2CCCN2Cc2nnc(C(C)C)o2)c1 (stereo not drawn) [DDD01296988] | 60.45 | 33.35 | – |
| CN(Cc1nnc(C2CC2)n1C)C1CCN(Cc2nccn2C)C1 (stereo not drawn) [DDD01296990] | 57.47 | <30 | – |
| CCS(=O)(=O)N1CCC(NC(=O)c2cc(C)ccc2O)CC1 [DDD01297269] | <30 | 56.83 | – |
| CC(C)CCc1nc(CNCC2CCCN2c2cccnn2)cs1 (stereo not drawn) [DDD01297850] | <30 | 39.30 | – |
| CCc1nnc2n1CCN(C(=O)c1nc(-c3ccco3)sc1C)C2 [DDD01298399] | 30.87 | <30 | – |
| CN1CCOC(CNCc2coc(-c3ccccc3Cl)n2)C1 (stereo not drawn) [DDD01298713] | 34.66 | <30 | – |
| O=C(c1ccc(-n2ccnc2)cc1)N1CCCC(n2ccnc2)C1 (stereo not drawn) [DDD01298772] | <30 | 36.32 | – |
| Cc1cc(NC(=O)CN2CCc3cnc(C(C)C)nc3C2)on1 [DDD01298964] | <30 | 41.23 | – |
| Cc1cc(C)cc(OCCN2CCn3c(C)nnc3C2)c1 [DDD01299569] | <30 | 31.60 | – |
| CCN1CCN(Cc2csc(C(C)C)n2)CC1 [DDD01301366] | 30.44 | <30 | – |
| CC(C)COC(C)C(=O)NCc1ccc(-n2cncn2)nc1 (stereo not drawn) [DDD01301486] | <30 | 33.08 | – |
| COc1ccc(-c2nc(CNCCn3cccn3)cs2)cc1 [DDD01301541] | <30 | 31.18 | – |
| CC(CC(=O)NS(=O)(=O)c1ccc2c(c1)OCCO2)c1ccc(F)cc1 (stereo not drawn) [DDD01301601] | <30 | 38.27 | – |
| c1cnc(-c2nc(CN3CCn4c(nnc4C4CC4)C3)cs2)nc1 [DDD01301615] | <30 | 32.48 | – |
| Cc1nc(C)n(CC2CCCN(CCOc3cccc(C#N)c3)C2)n1 (stereo not drawn) [DDD01302568] | 85.34 | <30 | – |
| CCC(NC(=O)c1ccco1)c1ccccc1OCC(=O)N1CCCC1 (stereo not drawn) [DDD01302666] | 33.09 | <30 | – |
| CC(C)CCN(C)C(=O)c1nc(S(C)(=O)=O)n2ccccc12 [DDD01302801] | 31.11 | <30 | – |
| COc1ccc(NC(=O)c2ccc(-n3ncc(C#N)c3N)cc2)cn1 [DDD01303472] | – | – | %Inh HepG2 @10uM [2]: 3.50% |
| O=C(NCC1(O)CCOc2ccccc21)c1ccc(Br)s1 (stereo not drawn) [OJF-034] | – | – | IC50 ([1]; SAR, Fig. 6 and Fig. 7): > 25 µM; IC50 ([3]; SAR, Fig. 7): > 25 µM |
